Literature values, collected in patent publication US20070026026A1 (priority 2005, published 2007).

Legend:
[1] = room temperature; cited from earlier work
cytochrome P450 3A4 = cytochrome P450 3A4 (Homo sapiens, UniProt P08684); conditions: in vitro studies; cited from earlier work
[2] = cited from earlier work
cytochrome P450 2C9 = cytochrome P450 2C9 (Homo sapiens, UniProt P11712); conditions: in vitro studies; cited from earlier work
AT1 receptor = target: T1, AT1 receptor (Homo sapiens, UniProt P30556); conditions: cited from earlier work
T1 sequence (P30556 1-359): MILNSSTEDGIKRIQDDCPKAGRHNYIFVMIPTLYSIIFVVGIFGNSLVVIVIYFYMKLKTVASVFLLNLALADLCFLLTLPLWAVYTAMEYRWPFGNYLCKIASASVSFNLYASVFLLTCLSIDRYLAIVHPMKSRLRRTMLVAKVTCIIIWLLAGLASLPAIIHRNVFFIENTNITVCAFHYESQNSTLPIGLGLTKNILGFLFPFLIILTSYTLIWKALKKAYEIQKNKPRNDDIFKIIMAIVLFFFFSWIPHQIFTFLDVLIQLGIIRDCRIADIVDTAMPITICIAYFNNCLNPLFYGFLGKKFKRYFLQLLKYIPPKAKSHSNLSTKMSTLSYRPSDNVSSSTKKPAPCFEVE

Chain of cytochrome P450 3A4 (P08684 whole entry): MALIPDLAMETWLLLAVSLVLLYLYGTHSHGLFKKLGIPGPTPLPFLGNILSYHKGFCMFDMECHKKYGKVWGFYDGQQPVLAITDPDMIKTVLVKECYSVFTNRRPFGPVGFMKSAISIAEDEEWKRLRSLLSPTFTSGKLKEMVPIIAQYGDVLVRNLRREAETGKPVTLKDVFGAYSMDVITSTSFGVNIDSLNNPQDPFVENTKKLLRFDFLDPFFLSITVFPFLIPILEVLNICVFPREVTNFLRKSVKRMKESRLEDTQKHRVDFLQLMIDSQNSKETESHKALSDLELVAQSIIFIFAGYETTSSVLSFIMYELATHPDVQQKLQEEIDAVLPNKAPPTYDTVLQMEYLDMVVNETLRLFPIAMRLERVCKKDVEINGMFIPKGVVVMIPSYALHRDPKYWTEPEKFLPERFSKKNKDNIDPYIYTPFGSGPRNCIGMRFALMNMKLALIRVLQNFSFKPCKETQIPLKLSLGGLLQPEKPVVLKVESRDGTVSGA
Chain of cytochrome P450 2C9 (P11712 whole entry): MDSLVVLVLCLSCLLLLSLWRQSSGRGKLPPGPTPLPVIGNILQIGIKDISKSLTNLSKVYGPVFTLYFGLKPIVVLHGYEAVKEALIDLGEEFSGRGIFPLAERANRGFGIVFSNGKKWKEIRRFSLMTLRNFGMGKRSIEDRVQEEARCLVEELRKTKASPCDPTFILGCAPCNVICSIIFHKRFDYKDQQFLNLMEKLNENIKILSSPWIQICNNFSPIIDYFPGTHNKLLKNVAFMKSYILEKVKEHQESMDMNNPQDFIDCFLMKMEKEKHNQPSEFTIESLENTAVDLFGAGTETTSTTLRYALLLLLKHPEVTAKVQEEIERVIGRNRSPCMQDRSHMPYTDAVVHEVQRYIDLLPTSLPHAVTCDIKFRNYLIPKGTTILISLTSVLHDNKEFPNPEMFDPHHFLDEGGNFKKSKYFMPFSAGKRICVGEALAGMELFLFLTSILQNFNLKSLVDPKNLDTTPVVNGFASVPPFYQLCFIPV

Compound	thermodynamic stability of the polymorph [1]	involvement in the biotransformation of losartan to its metabolites (cytochrome P450 3A4)	terminal half-life ([2]; in vivo)	maximum plasma concentrations of losartan and its active metabolite compared ([2]; oral administration)	systemic bioavailability ([2]; oral administration)	time to mean peak concentrations ([2]; oral administration) [h]	pharmacokinetics, dose dependence ([2]; oral losartan doses up to 200 mg)	effect of a meal on AUC (decrease) ([2]; with a meal)	effect of a meal on Cmax ([2]; with a meal)	effect of a meal on absorption ([2]; with a meal)	involvement in the biotransformation of losartan to its metabolites (cytochrome P450 2C9)	partial agonist activity at the AT1 receptor (AT1 receptor)
CCCCc1nc(Cl)c(CO)n1Cc1ccc(-c2ccccc2-c2nnn[n-]2)cc1.[K+] [Form I]	more thermodynamically stable polymorph											
CCCCc1nc(Cl)c(CO)n1Cc1ccc(-c2ccccc2-c2nn[nH]n2)cc1 [losartan]		involved	about 2 hours	approximately equal	approximately 33%	1	linear	about 10%	decreases	slows absorption	involved	do not exhibit any partial agonist activity
